From US20070134261A1, “Effectors of innate immunity” (priority 2001, published 2007)
Read-outs that look alike come from different tables or passages of the source. No end group written: not given here.

How the values were obtained:
[1] = tested on: RAW 264.7 mouse macrophage cells; type: cell-based; conditions: Peptide 20 μg/ml; 100 ng/ml E. coli 0111:B4 LPS, 6 h
[2] = type: cell-based; conditions: for MIC, S. aureus: Staphylococcus aureus
[3] = tested on: A549 human epithelial cells; assay: Induction of chemokines (IL-8, MCP-1) in A549 cells (ELISA); type: cell-based; conditions: peptide 10 ug/ml, 24 hr
Procedure: The murine macrophage cell line RAW 264.7, THP-1 cells (human monocytes), a human epithelial cell line (A549), human bronchial epithelial cells (16HBEo14), and whole human blood were used. HBE cells were grown in MEM with Earle's. THP-1 cells were grown and maintained in RPMI 1640 medium. The RAW and A549 cell lines were maintained in DMEM supplemented with 10% fetal calf serum. […] DMEM was aspirated from cells grown overnight and replaced with fresh medium. After incubation of the cells with peptide, the release of chemokines into the culture supernatant was determined by ELISA (R&D Systems, Minneapolis, Minn.).

BALB/c mice = assay: Lethal endotoxemia in galactosamine-sensitized BALB/c mice; type: in vivo; conditions: 2 μg LPS; peptide 200 μg/mouse = 8 mg/kg IP 15 min after LPS; 48 hours; no peptide 10
[4] = Citobacter rhodensis, overnight, 96-well plate
[5] = Enterohaemorrhagic E. coli, overnight, 96-well plate
[6] = Escherichia coli, overnight, 96-well plate
[7] = Pseudomonas aeruginosa, overnight, 96-well plate
[8] = Salmonella enteritidis ssp. typhimurium, overnight, 96-well plate

Sequence | Inhibition of TNF-α [1] [%] | MIC, C. rhod. [2, 4] [µg/mL] | MIC, EHEC [2, 5] [µg/mL] | MIC, E. coli [2, 6] | MIC, P. aerug. [2, 7] [µg/mL] | MIC, S. typhim. [2, 8] [µg/mL] | MIC, S. aureus ([2]; overnight, 96-well plate) | IL-8 [3] [ng/mL] | MIC, C. rhod. ([2]; 24 h) [µg/mL] | MIC, E. coli ([2]; 24 h) [µg/mL] | MIC, EHEC ([2]; 24 h) [µg/mL] | MIC, P. aerug. ([2]; 24 h) [µg/mL] | MIC, S. typhim. ([2]; 24 h) [µg/mL] | Survival (BALB/c mice) [%]
KWKSYAHTIMSPVRLVFHTALKPISS [SEQ ID NO: 54] | 64 ± 0.73 | 16 | 32 | 64 µg/mL | 16 | 64 | > | 0.133 |  |  |  |  |  | 
KWKRGAHRFMKFLSTIFHTALKPISS [SEQ ID NO: 49] | 86.9 ± 0.69 |  |  |  |  |  | > | 0.301 | 4 | 4 | 4 | 16 | 8 | 
DLPAKRGSAPGST (Cationic peptide) [SEQ ID NO: 12, Formula B cationic peptide] | 52.1 ± 0.38 |  |  | > |  |  | > |  |  |  |  |  |  | 17
KWKSLVMMFKKPARRIFHTALKPISS [SEQ ID NO: 51] |  | 4 | 8 | 4 µg/mL | 8 | 32 | > | 0.255 |  |  |  |  |  | 
KKSPIAPAIPWSR (Cationic peptide) [SEQ ID NO: 8, Formula A cationic peptide] | 39.3 ± 1.9 |  |  | > |  |  | > |  |  |  |  |  |  | 
KWKHALMKAHMLWHMIFHTALKPISS [SEQ ID NO: 52] |  |  |  |  |  |  | > | 0.207 | 2 | 8 | 2 | 32 | 8 | 
